Source: ChEMBL document CHEMBL1201862, “PubChem BioAssay data set” (2004)
The source made the active and inactive calls.

Legend:
[1] = Luminescence-based cell-based high throughput dose response assay to identify activators of the DAF-12 from the parasite S. stercoralis (ssDAF-12).; type: functional
[2] = target: T1, Protein skinhead-1 (Caenorhabditis elegans, UniProt P34707); type: functional
T1 sequence (P34707 whole entry): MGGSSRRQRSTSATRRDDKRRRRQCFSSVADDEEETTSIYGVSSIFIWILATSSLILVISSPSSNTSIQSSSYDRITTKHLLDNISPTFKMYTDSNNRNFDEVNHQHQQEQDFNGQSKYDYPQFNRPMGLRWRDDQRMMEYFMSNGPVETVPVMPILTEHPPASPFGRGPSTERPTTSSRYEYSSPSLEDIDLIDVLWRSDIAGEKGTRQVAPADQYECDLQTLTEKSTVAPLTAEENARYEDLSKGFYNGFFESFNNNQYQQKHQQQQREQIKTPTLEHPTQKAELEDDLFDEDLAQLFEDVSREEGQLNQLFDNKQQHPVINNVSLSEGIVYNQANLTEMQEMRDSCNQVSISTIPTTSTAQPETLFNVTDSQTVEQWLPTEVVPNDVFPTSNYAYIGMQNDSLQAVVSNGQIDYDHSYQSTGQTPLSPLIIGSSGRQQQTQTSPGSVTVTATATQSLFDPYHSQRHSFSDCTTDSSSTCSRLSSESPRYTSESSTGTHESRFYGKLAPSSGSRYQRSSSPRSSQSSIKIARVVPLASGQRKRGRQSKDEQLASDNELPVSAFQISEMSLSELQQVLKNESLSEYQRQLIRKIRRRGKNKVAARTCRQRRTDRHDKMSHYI

[3] = target: T2, Oxysterols receptor LXR-beta (Homo sapiens, UniProt P55055); assay: LXR agonists, Gal4 luciferase reporter, dose response, counter-screen for ssDAF-12 agonist project, cell-based, luminescence, HEK293, S. stercoralis campaign (AID 720737); type: functional; conditions: read-out: IC50 (the source's name)
T2 sequence (P55055 whole entry): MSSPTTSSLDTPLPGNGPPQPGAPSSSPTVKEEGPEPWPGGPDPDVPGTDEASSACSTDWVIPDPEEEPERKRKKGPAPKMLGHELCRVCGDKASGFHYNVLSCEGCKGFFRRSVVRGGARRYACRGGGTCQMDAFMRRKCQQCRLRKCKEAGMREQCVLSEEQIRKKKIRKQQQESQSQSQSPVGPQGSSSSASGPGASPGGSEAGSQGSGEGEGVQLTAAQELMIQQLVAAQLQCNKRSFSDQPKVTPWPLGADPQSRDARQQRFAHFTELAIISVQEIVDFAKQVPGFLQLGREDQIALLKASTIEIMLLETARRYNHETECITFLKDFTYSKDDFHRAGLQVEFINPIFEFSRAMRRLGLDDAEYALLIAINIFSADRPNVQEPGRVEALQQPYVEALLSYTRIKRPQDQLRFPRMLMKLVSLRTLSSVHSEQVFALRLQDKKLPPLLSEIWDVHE

[4] = A Cell Based Secondary Assay To Explore Cytotoxicity of Compounds that Sensitize Mycobacterium Tuberculosis to Beta-Lactam Antibiotics.; type: functional
[5] = target: Kallikrein-7 (Homo sapiens, UniProt P49862); assay: Fluorescence Intensity-based biochemical primary high throughput dose response assay to identify activators of kallikrein-7 (K7) zymogen.
[6] = target: Paired box protein Pax-8 (Homo sapiens, UniProt Q06710); assay: inhibitors of PAX8-driven TPO luciferase reporter, dose response, RMG-I cells, cherry-pick (AID 687027); type: functional, cell-based;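 note: luciferase reporter driven by Pax8 target thyroperoxidase promoter measured by SteadyGlo luminescence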
[7] = A549 cell cytotoxicity, dose response, CellTiter-Glo luminescence, dry powder, set 17 (AID 1117284); type: functional, cell-based
[8] = cytotoxicity in OVCAR8 ovarian cancer cells, dose response, PAX8 project, cell-based, plate reader, dry powder samples (AID 743197); type: functional; conditions: OVCAR-8
[9] = target: RNA-editing ligase 1, mitochondrial (Trypanosoma brucei brucei, UniProt P86926); assay: TbREL1 ligase inhibitors, dose response, biochemical, fluorescence, Trypanosoma brucei (AID 1117295); type: functional
[10] = PAX2 cell-based inhibition, dose response, selectivity assay for PAX8 inhibitor project, plate reader, dry powder samples (AID 743048); type: functional;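 note: HEK293 cells carrying a WT1 promoter luciferase reporter driven by expressed Pax2; potency is for inhibition of Pax2 driven reporter signal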
[11] = cytotoxicity in COV434 cells, dose response, cytotoxicity control for PAX8 inhibitor project, cell-based, plate reader, dry powder, SA7 (AID 743145); type: functional
[12] = cytotoxicity dependent on PAX8, dose response, cell-based, plate reader, dry powder (AID 743049); type: functional
[13] = target: T3, Protein RecA (Mycobacterium tuberculosis, UniProt P9WHJ3); assay: Fluorescence Cell-Free Homogeneous Dose Retest to Identify Inhibitors of RecA-Intein Splicing Activity. [Related pubchem assays (depositor defined):AID2097, AID2223, AID489010, AID492950]; type: functional
T3 sequence (P9WHJ3 whole entry): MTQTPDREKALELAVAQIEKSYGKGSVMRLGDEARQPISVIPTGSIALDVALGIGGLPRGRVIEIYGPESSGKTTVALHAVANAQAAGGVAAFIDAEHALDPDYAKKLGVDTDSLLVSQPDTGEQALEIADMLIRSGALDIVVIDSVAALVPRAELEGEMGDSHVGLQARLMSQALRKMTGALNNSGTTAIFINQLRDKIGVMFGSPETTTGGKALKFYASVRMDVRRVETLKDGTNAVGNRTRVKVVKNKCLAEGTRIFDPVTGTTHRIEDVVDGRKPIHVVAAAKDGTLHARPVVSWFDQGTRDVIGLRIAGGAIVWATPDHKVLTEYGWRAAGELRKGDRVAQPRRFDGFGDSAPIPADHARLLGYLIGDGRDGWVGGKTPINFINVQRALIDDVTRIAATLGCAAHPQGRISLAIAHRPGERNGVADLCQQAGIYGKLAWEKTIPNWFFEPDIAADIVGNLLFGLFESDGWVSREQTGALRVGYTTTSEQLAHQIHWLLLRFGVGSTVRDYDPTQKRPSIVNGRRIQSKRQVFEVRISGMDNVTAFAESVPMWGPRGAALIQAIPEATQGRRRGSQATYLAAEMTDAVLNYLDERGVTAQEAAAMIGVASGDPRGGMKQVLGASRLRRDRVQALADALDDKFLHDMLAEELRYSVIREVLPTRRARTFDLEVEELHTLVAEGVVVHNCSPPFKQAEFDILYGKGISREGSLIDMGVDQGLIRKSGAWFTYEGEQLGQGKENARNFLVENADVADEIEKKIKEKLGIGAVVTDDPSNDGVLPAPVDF

[14] = IOSE-T80 ovarian epithelial cell cytotoxicity, dose response, cytotoxicity control for PAX8 inhibitor project, plate reader, dry powder samples (AID 743045); type: functional, cell-based
[15] = NIH:OVCAR-3 ovarian cancer cell cytotoxicity, dose response, PAX8 inhibitor project, plate reader, dry powder samples (AID 743044); type: functional, cell-based
[16] = target: T4, Replicative DNA helicase DnaB (Mycobacterium tuberculosis, UniProt P9WMR3); assay: DnaB intein splicing inhibitors, dose response, biochemical, cell-free fluorescence (AID 449749); type: functional
T4 sequence (P9WMR3 whole entry): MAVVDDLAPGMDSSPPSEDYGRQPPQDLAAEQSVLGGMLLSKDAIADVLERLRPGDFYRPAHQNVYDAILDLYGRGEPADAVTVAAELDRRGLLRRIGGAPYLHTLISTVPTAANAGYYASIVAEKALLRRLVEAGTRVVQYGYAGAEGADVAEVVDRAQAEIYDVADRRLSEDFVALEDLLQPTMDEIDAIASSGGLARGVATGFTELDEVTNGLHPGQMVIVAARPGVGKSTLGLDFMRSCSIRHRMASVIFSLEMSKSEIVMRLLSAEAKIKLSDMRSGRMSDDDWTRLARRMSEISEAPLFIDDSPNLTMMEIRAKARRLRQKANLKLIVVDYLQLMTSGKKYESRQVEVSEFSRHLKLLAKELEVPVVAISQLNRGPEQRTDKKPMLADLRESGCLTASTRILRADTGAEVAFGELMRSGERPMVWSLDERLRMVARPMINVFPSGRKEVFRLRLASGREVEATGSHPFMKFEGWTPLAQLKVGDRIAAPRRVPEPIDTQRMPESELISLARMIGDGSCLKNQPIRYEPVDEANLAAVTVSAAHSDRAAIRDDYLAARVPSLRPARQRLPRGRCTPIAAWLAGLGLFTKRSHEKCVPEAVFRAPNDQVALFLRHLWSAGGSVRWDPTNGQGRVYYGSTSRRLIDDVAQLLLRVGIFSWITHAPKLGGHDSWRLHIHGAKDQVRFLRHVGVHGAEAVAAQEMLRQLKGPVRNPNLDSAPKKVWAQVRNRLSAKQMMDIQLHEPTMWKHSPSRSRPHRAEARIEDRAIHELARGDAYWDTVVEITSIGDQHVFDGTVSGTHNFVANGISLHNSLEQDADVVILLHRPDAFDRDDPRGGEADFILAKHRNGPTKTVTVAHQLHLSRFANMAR

Paired box protein Pax-8, sequence (Q06710 whole entry): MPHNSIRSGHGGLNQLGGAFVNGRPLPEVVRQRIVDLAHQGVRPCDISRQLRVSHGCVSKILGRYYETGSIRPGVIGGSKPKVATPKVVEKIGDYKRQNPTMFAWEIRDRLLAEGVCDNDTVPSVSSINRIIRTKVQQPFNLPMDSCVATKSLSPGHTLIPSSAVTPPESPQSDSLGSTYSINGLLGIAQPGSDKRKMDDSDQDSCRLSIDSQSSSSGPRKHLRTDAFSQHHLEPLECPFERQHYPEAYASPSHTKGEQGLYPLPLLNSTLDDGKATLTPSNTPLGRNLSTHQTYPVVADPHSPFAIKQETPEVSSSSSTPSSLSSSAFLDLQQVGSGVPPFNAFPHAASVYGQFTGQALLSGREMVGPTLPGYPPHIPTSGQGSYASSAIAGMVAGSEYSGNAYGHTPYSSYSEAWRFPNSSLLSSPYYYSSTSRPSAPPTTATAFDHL
RNA-editing ligase 1, mitochondrial, sequence (P86926 whole entry): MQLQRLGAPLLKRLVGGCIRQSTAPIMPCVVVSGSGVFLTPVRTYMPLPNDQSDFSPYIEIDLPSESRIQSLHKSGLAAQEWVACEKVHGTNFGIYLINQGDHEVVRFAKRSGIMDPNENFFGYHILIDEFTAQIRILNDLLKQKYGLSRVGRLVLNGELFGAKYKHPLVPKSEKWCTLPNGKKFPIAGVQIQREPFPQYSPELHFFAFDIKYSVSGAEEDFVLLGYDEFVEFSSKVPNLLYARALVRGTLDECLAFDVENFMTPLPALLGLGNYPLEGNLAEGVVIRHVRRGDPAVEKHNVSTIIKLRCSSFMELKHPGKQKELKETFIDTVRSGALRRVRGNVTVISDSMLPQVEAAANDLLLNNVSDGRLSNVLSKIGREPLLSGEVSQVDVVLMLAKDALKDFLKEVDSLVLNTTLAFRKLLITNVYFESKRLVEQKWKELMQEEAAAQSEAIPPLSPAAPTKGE
Kallikrein-7, sequence (P49862 whole entry): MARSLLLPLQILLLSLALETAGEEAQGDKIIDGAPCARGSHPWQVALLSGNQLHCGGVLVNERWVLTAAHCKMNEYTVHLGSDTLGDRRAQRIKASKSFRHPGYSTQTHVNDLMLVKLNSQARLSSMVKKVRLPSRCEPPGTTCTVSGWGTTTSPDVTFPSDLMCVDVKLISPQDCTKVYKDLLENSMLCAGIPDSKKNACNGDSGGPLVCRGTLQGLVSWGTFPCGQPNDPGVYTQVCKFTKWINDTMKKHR

## Fc1ccc(-c2csc(Nc3ccccn3)n2)cc1
[1]
  IC50: > 67.6 µM (inactive)
[2]
  IC50: 22.8 µM (active)
[3]
  EC50: > 67.6 µM (inactive)

## COc1ccc(OC(=O)c2cccc([N+](=O)[O-])c2)c(C(=O)/C=C/c2cccs2)c1
[4]
  CC50: 39.6 µM (active)
[5]
  EC50: 46 µM (inactive)

## C[C@H](O)C#Cc1ccc2c(c1)O[C@H](CN(C)Cc1ccc(-c3ccccc3)cc1)[C@H](C)CN([C@@H](C)CO)S2(=O)=O
[6]
  AC50: 5.87 µM (active)
[7]
  AC50: > 52 µM (inactive)
[8]
  AC50: 50 µM (active)

## C=CCNCCOCCOc1ccc(Cl)cc1C(C)(C)C
[9]
  IC50: > 96.6 µM (inactive)

## O=C1/C(=C/c2ccccc2F)SC(=S)N1CC(=O)N1CCCCC1c1cccnc1 (configuration not stated)
[10]
  AC50: > 100 µM (inactive)
[11]
  AC50: 38.3 µM (active)
[6]
  AC50: 5.04 µM (active)
[12]
  AC50: 44.9 µM (active)
[13]
  EC50: 18.6 µM (active)
[14]
  AC50: 43.5 µM (active)
[15]
  AC50: 26.3 µM (active)
[16]
  AC50: 17.9 µM (active)
